Test results from patent US20140051601A1, “METABOLOMIC PROFILING OF CANCER” (METABOLAN INC., priority 2006, published 2014).

Columns and labels:
[1] = target: EGFR (Homo sapiens, UniProt P00533); assay: Immunoblot analysis of EGFR phosphorylation and total EGFR; conditions: for total EGFR levels: upon treatment, PrEC
[2] = test system: benign prostate epithelial cells; assay: Modified Boyden chamber matrigel invasion assay, exogenous addition of amino acids; type: cell-based; conditions: compared with sarcosine
Description: (§1) To investigate the biological role of sarcosine elevation in prostate cancer, prostate cancer cell lines VCaP, DU145, 22RV1 and LNCaP and their benign epithelial counterparts, primary benign prostate epithelial cells PrEC and immortalized benign RWPE prostate cells were used.
(§2) To determine if sarcosine plays a role in this process, it was added directly to non-invasive benign prostate epithelial cells. Alanine (an isomer of sarcosine) was used as a control for these experiments. […] The present invention is not limited to a particular mechanism. Indeed, an understanding of the mechanism is not necessary to practice the present invention.

[3] = test system: RWPE cells; assay: Invasion upon exogenous sarcosine or glycine with siRNA knock-down of GNMT; type: cell-based
Description: as §2

[4] = test system: RWPE cells; assay: Sarcosine-induced invasion after pre-treatment with EGFR inhibitor; type: cell-based; conditions: pre-treatment of RWPE cells with 10 μM
Excerpt: as §1

[5] = test system: src; assay: Immunoblot analysis of src phosphorylation; type: cell-based; conditions: sarcosine-treated PrEC compared to alanine-treated controls
Excerpt: (§3) Also total EGFR levels were elevated upon treatment with alanine or sarcosine. […]. […] This observation was further strengthened using both antibody-mediated inhibition of EGFRactivity and siRNA-mediated knock-down of receptor levels.

[6] = test system: p38MAPK; assay: Immunoblot analysis of p38MAPK phosphorylation; type: cell-based; conditions: sarcosine-treated PrEC
Excerpt: as §3

[7] = control non-target siRNA-transfected cells

Sequence of EGFR (P00533 25-1210): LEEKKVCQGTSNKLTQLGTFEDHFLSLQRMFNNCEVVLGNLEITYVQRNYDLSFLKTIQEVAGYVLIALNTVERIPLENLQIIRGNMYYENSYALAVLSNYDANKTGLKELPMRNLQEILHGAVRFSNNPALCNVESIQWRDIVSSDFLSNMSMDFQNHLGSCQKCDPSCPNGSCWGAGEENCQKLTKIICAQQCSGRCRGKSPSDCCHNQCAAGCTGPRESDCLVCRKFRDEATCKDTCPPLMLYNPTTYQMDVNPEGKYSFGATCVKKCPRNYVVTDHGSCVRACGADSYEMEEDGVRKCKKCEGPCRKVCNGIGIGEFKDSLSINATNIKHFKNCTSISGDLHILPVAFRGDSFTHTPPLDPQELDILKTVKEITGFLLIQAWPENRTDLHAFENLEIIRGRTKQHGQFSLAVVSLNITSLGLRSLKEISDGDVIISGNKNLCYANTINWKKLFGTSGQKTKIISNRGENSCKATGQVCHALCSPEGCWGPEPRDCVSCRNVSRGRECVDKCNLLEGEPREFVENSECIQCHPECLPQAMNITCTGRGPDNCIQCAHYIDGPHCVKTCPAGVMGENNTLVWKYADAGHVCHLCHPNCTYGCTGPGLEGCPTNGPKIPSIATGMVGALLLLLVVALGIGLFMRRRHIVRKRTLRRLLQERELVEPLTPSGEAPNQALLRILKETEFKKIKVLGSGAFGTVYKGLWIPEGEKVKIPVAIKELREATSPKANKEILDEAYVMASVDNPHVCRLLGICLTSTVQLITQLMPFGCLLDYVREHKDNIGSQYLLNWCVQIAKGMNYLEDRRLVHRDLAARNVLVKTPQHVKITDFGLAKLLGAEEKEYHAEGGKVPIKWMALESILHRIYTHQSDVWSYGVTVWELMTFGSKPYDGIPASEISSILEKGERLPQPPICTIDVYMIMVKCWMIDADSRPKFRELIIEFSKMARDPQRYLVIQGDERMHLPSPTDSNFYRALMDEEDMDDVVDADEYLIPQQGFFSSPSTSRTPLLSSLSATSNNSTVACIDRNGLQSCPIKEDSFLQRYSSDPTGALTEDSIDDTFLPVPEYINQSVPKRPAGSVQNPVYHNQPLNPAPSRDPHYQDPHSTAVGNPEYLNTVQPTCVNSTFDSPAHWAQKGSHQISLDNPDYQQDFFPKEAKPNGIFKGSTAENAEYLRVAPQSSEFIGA

total EGFR levels [1] | Structure (SMILES) | invasion upon exogenous amino acid addition, mean±SEM ([3]; GNMT knockdown) | invasion upon exogenous amino acid addition, mean±SEM [3, 7] | further results
elevated | C[C@H](N)C(=O)O [alanine, reference compound] |  |  | 
 | NCC(=O)O [glycine] | 0.20±0.03 | 0.46±0.04 | induction of invasion [2]: also induced invasion in these cells, although to a lesser degree than sarcosine
 | C#Cc1cccc(Nc2ncnc3cc(OCCOC)c(OCCOC)cc23)c1 [erlotinib] |  |  | decrease in sarcosine-induced invasion [4]: 2 fold
elevated | CNCC(=O)O [sarcosine, N-methylglycine] | 0.64±0.07 | 0.65±0.05 | src phosphorylation [5]: time-dependent increase; EGFR phosphorylation ([1]; sarcosine-treated PrEC compared to alanine-treated controls): time-dependent increase; p38MAPK phosphorylation [6]: phosphorylation of p38MAPK
